Experimental data as given in patent publication US7595409B2, “3,4-diamino-3-cyclobutene-1,2-dione derivatives as potassium channel openers” (Janssen Pharmaceutica N.V., priority 2006, dated 2009).

Biological target: T1, KATP channels (Homo sapiens, UniProt O60706)
T1 construct: TE671 human medulloblastoma cells were obtained from ATCC; host or cells: TE671 human medulloblastoma cells
Experiment: Potassium Channel Assay (FLIPR membrane potential, TE671 cells)
Assay type: cell-based
Conditions: 30 μM test compound; TE671 human medulloblastoma cells; FLIPR Membrane Potential Assay Dye; room temperature
Protocol: TE671 human medulloblastoma cells were obtained from ATCC and grown in Dulbecco's modified Eagle's medium (DMEM) supplemented with 10% fetal bovine serum, 100 U/ml penicillin and 100 U/ml streptomycine.
The day before testing, the cells were plated in black 96-well plates at 50 K/well. On the day of testing, the growth media was removed, then 100 μl of FLIPR buffer (20 mM 4-(2-hydroxyethyl)-1-piperizine ethane sulfonic acid (HEPES), 120 mM NaCl, 2 mM KCl, 2 mM CaCl2, 1 mM MgCl2, 5 mM Glucose) and 100 μl of Membrane Potential Assay Dye (Molecular Devices) dissolved in FLIPR buffer were added to each well. The cells were incubated at room temperature for 15 to 30 min.
The effect of test compounds on KATP channels were evaluated on a fluorometric imaging plate reader (FLIPR, Molecular Devices) at room temperature. After a baseline period, 50 μl of 5× stock solution of test compound prepared in FLIPR buffer was added and fluorescent change was monitored for 3 minutes. After this reading, glyburide, a KATP channel blocker, was added to a final concentration of 5 μM to check the specificity of the test compound as a KATP channel openers. Hyperpolarization resulting from KATP channel opening was observed as a decrease in fluorescent intensity.
Representative compounds of the present invention were tested according to the procedure described above, with results as listed in Table 2 below.

T1 sequence (O60706 1-1549 isoform O60706-2): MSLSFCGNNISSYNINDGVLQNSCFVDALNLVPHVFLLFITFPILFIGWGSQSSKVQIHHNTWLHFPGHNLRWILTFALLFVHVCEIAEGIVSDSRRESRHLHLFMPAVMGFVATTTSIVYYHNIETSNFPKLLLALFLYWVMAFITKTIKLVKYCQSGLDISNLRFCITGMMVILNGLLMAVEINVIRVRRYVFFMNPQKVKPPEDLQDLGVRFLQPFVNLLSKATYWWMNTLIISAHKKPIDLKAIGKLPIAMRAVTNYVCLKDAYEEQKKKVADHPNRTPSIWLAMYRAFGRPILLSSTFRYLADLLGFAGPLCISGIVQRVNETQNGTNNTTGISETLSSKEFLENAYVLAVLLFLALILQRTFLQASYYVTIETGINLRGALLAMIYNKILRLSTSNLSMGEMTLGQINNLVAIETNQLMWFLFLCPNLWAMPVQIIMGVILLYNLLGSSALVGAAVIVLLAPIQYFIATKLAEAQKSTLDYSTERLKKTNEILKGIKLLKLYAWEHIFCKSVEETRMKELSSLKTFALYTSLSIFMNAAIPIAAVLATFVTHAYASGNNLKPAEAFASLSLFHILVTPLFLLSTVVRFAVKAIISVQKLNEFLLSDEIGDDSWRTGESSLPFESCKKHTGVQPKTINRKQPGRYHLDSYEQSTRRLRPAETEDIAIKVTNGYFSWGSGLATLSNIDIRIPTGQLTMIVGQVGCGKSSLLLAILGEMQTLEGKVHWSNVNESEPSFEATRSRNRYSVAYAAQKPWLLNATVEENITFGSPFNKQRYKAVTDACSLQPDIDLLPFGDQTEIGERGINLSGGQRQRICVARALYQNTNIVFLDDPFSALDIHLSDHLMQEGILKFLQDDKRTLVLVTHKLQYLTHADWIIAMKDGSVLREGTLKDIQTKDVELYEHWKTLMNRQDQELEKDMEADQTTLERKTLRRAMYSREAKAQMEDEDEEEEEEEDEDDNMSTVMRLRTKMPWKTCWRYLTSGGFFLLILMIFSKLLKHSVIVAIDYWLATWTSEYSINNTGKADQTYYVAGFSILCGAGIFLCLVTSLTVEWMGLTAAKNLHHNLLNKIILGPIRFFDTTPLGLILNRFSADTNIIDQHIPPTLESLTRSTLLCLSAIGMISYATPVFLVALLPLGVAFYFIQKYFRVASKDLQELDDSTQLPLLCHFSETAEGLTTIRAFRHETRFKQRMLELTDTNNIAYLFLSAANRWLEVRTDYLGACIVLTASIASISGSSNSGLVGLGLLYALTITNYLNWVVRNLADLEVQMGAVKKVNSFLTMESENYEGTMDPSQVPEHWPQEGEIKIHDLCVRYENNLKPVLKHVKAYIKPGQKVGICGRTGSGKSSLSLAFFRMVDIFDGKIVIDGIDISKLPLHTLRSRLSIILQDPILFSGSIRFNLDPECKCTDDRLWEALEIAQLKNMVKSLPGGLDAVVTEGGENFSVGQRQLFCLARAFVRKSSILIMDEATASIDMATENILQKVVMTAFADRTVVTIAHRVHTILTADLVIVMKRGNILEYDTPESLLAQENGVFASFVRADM
T1 sequence (Q14654 whole entry partner): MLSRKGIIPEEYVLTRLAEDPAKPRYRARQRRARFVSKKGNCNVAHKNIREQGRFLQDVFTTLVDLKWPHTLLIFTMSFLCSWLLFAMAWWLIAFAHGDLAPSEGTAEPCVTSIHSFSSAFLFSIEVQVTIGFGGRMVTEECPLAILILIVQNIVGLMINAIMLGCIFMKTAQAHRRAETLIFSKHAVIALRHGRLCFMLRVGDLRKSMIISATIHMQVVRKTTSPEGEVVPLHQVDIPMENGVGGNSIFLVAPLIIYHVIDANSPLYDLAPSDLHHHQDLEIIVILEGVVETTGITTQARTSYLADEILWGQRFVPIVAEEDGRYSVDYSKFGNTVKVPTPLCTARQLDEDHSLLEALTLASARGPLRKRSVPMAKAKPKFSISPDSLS

| % Stimulation @ 30 μM [%] | SMILES |
| --- | --- |
| 94 | CCc1cc(C#N)ccc1Nc1c(NC2CCCC23CCCO3)c(=O)c1=O (centres unmarked) [Compound 1, 3-ethyl-4-[[2-(1-oxaspiro[4.4]non-6-ylamino)-3,4-dioxo-1-cyclobutene-1-yl]amino]-benzonitrile] |
| 49 | Cc1cc(Cl)cc(Cl)c1CNc1c(NC2CCCC23CCCO3)c(=O)c1=O (centres unmarked) [Compound 3, 3-[[(2,4-dichloro-6-methylphenyl)methyl]amino]-4-(1-oxaspiro[4.4]non-6-ylamino)-3-cyclobutene-1,2-dione] |
